{"source": "patent US12194034B2", "about": "“Neutrophil exocytosis inhibitors” (IMMUNYX PHARMA LTD., priority 2021, dated 2025)", "key": {"[1]": {"tested_on": "human neutrophils", "test": "NETosis assay", "format": "cell-based", "settings": "PMA 50 nM; for PMA-induced NETosis (NETosis positive events over time): T1/T3 10 μM, Trifluoperazine 100 ng/ml, Incucyte, 8 hr", "method": "NETosis assay: The assay was carried out as previously described (Gupta et al., “A High-Throughput Real-Time Imaging Technique To Quantify NETosis and Distinguish Mechanisms of Cell Death in Human Neutrophils.”, J Immunol. 2018; 200:869-879, herein incorporated by reference in its entirety). Briefly, human neutrophils (2×10^6 cells/mL) were incubated for 5 minutes in the dark at RT with the NUCLEAR-ID Red DNA dye to stain nuclei (Enzo Life Sciences, Inc.). Cells were washed twice and resuspended in 1 mL of RPMI media. NUCLEAR-ID Red stained-neutrophils were plated (20,000 neutrophils per 100 μL per well) in a 96-well flat microplate. Stimulation of neutrophils NETosis was performed with PMA alone (50 nM), or with PMA in the presence of T1 compound (10 μM) or T3 compound (10 μuM). Unstimulated neutrophils served as a negative control. Neutrophils stimulated with PMA in the presence of Trifluoperazine (Stelazine, 100 ng/ml) were used as positive control. A final concentration of 0.1 μM of the membrane impermeable dsDNA fluorescent Sytox® Green nucleic acid stain (Life Technologies, Inc.) was added to the plated cells concomitantly with the stimuli. Neutrophils were imaged within 10 minutes of plating using phase contrast, red (800 ms exposure) and green (400 ms exposure) channels in the IncuCyte ZOOM™ platform (Essen BioScience, Inc.), located within a cell incubator at 37° C. with 5% CO2. Four image sets from distinct regions per well using a 20x dry objective lens were taken every 20-30 minutes, for 8 hr. For red channel, filters were applied to exclude objects below radius of 10 μm, fluorescence threshold of 0.5 red corrected units, and area of 15 μm^2. The filters applied the green channel excluded objects below the radius of 10 μm, fluorescence threshold of 1.00 green corrected units, and area of 100 μm^2. The green object count divided by the red object count represents the percentage of cells going through NETosis of total neutrophils. Liposome preparation: 2.5% DSPE-PEG3400-Maleimide liposomes were prepared in 250 mM ammonium sulfate. Liposomes were prepared at a molar ration of 56.5:41: 2.5:0.09 of HSPC: Cholesterol: DSPE-PEG-Mal: DilC18 (5)-DS.\nBesides degranulation, neutrophils can kill pathogens extracellularly by releasing neutrophil extracellular traps (NETs), a process known as NETosis. Examination of NETosis induced by PMA was monitored by an Incucyte live-cell analysis system (FIG. 4). PMA treatment produced a steady increase in NETosis positive events starting at 2 hours after treatment. […] An increase was only observed after 4 hours when T1 was used and after 5 hours when T3 was used."}, "[2]": {"tested_on": "human neutrophils", "settings": "cited from earlier work"}, "[3]": {"tested_on": "peripheral blood neutrophils", "test": "LPS-induced inflammation mouse model, surface CD11b of peripheral blood neutrophils", "format": "in vivo, Balb/C mice", "settings": "LPS 1 mg/kg intraperitoneal; T3 (Z isomer) 3 mg/kg IV after 1 hour; blood after 3 hours", "method": "The in-vivo effect of the three compositions of T3 was examined in a mouse model of inflammation. Balb/C mice were intraperitoneal injected with 1 mg/kg of LPS to induce inflammation and neutrophil toxicity. After 1 hour, T3—free molecule, T3 within a liposome, and T3 within a targeted liposome (TENN-T3) were IV administered at a final concentration of 3 mg/kg body weight. After 3 hours 0.5 mL of blood was drawn from each mouse and degranulation of peripheral blood neutrophils was evaluated by flow cytometry analysis of surface CD11b levels (neutrophils were identified by Ly6G staining). […] Overall, it is clear that T3 inhibits neutrophil activation in vivo and that targeting greatly enhances the effect."}, "[4]": {"tested_on": "DSS colitis model mice", "test": "DSS colitis mouse model", "format": "in vivo, C57BL/6 mice", "settings": "3% DSS 5 days; 2.5 mg/kg of T3 on days 5, 7 and 9", "method": "Next, the ability of T3 administration, to treat colitis, a disease caused at least in part by neutrophil cytotoxicity, was tested in a mouse model. Colitis was induced in C57BL/6 mice by administration of 3% dextran sulfate sodium (DSS) for 5 consecutive days in drinking water. 2.5 mg/kg of T3, in its three formulations, was administered on days 5, 7 and 9. Colitis induction by DSS caused a pronounced shortening of the mouse colon.\nLower doses of TENN-T3 were also tested. The targeted liposomes were administered at days 5 and 7 and mice were sacrificed on day 10 and colon length was measured."}, "[5]": {"tested_on": "human neutrophils", "settings": "by inhibiting NAD(P)H; cited from earlier work"}, "[6]": {"tested_on": "human neutrophils", "settings": "cited from earlier work", "remark": "listed apart in the source"}}, "data": [{"smiles": "CCN(CC)CCC(C)(C)C(=O)/C(=C/c1cccc([N+](=O)[O-])c1)n1cncn1", "note": "[T1]", "values": [{"measurement": "time after which an increase in NETosis was observed", "setting": "[1]; compound 10 μM", "value": "> 4", "unit": "h"}, {"measurement": "PMA-induced NETosis (NETosis positive events over time)", "setting": "[1]", "value": "initially inhibited an increase in NETosis completely"}]}, {"smiles": "CN1CCN(CCCN2c3ccccc3Sc3ccc(C(F)(F)F)cc32)CC1", "note": "[Trifluoperazine, reference compound]", "values": [{"measurement": "PMA-induced NETosis (NETosis positive events over time)", "setting": "[1]", "value": "steady reduction"}, {"measurement": "inhibition of NETosis (known)", "setting": "[2]", "value": "known inhibitor of NETosis"}]}, {"smiles": "CN1CCC(N2CCC(C(=O)/C(=C/c3cccc([N+](=O)[O-])c3)n3cncn3)CC2)CC1", "note": "[T3]", "values": [{"measurement": "NETosis events compared with control", "setting": "[1]; compound 10 μM", "value": "very similar to control"}, {"measurement": "time after which an increase in NETosis was observed", "setting": "[1]; compound 10 μM", "value": "> 5", "unit": "h"}, {"measurement": "PMA-induced NETosis (NETosis positive events over time)", "setting": "[1]", "value": "initially inhibited an increase in NETosis completely"}, {"measurement": "reduction in degranulation (surface CD11b of blood neutrophils)", "setting": "[3]", "value": "moderate but not statistically significant reduction"}, {"measurement": "colon length", "setting": "[4]", "value": "comparable to a negative control"}]}, {"smiles": "c1ccc2c(c1)[I+]c1ccccc1-2", "note": "[DPI, Diphenylenciodonium]", "values": [{"measurement": "ROS production (known effect)", "setting": "[5]", "value": "nearly completely abolish ROS production"}]}, {"smiles": "CC(C)(C)C(=O)/C(=C/c1cccc([N+](=O)[O-])c1)n1cncn1", "note": "[Nexinhib-20]", "values": [{"measurement": "inhibition of degranulation (known)", "setting": "[6]", "value": "known to inhibit degranulation"}]}]}
